{
  "source": "patent US20030111088A1",
  "about": "“Device and method for treating combination dependencies” (Addiction Therapies, Inc., priority 2001, published 2003)",
  "key": {"[1]": {"settings": "several clinical studies; cited from earlier work"}, "[2]": {"settings": "in vivo; cited from earlier work"}, "[3]": {"settings": "for plasma levels of nicotine by dose group: single and repeated dose parts", "procedure": "The chamber 10 is a plastic drinking straw. The retainer 18 is a filter at the first end 12 of the straw. The user places the first end 12 of the device in a glass of apple juice and applies oral suction to the second end 14 of the device, such that the juice and nicotine 16 are delivered into the user's mouth.\nThe nicotine 16 in the device is in the form of coated sugar spheres of nicotine bitartrate having a diameter of approximately 500 micrometers. The nicotine spheres are prepared by spraying nicotine bitartrate dihydrate with a binder onto sugar spheres and applying a film coating. Using a Wurster processing unit, particles are suspended in air using a controlled airflow system and a coating suspension is added at a controlled rate via a pneumatically atomized nozzle. As atomized droplets of the coating solution contact the particles, they spread and coalesce on the particle surface. Excess moisture from the applied liquid evaporates in the apparatus, leaving a coated dry substance. Mixing of the coating suspension occurs throughout the manufacturing process to ensure uniformity of the suspension.\n(§1) On day one, following overnight abstinence from smoking, healthy adult smokers who wish to give up smoking receive a single dose of nicotine or placebo. Smokers are assigned to each dosage group in a double blind, randomized manner, as is well known in the art. The following data are collected before dosing, every thirty minutes for the first two hours after dosing, and every hour for the following six hours: plasma levels of nicotine and cotinine, vital signs, adverse events, and patient's assessment of cigarette cravings. Baseline and endpoint clinical chemistry, hematology, urinalysis, and ECG are also monitored.\n(§2) There were 6 subjects per treatment group. […] Apple juice was used as the beverage for delivering nicotine from the straw-like device."}, "[4]": {"source_text": "as §1\nOn day eight, again following overnight abstinence from smoking, the same subjects receive the same dose of nicotine or placebo. The dose is repeated periodically throughout the day. The following data are collected as described above before the first dosing and one hour after each dose is administered: plasma levels of nicotine and cotinine, vital signs, adverse events, and patient's assessment of cigarette cravings. Baseline and endpoint clinical chemistry, hematology, urinalysis, and ECG are also monitored. The data are used to evaluate the safety and pharmacokinetics of nicotine delivery by the smoking cessation device.\nas §2"}},
  "note": "Read-outs that look alike come from different tables or passages of the source.",
  "data": [
    {"smiles": "O=C1CC[C@@]2(O)[C@H]3Cc4ccc(O)c5c4[C@@]2(CCN3CC2CC2)[C@H]1O5", "note": "[Naltrexone, naltrexone]", "values": [
      {"measurement": "effects on smoking cessation", "setting": "[1]", "value": "only small effects"}
    ]},
    {"smiles": "Oc1ccc2c3c1O[C@H]1[C@H](O)CC[C@@]4(O)[C@@H](C2)N(CC2CC2)CC[C@]314", "note": "[6β-naltrexol]", "values": [
      {"measurement": "plasma half-life", "setting": "[2]", "value": 12, "unit": "h"}
    ]},
    {"smiles": "CN1CCCC1c1cccnc1", "note": "(centres unmarked) [nicotine]", "values": [
      {"measurement": "plasma levels of nicotine by dose group", "setting": "[3]; 4 mg dose group", "value": "lowest plasma levels"},
      {"measurement": "plasma levels of nicotine by dose group", "setting": "[3]; 8 mg and 12 mg dose groups", "value": "higher plasma levels"},
      {"measurement": "nicotine levels in most subjects", "setting": "[3]; 15 minutes after dosing", "value": "already increased"},
      {"measurement": "plasma nicotine on repeated dosing", "setting": "[3]; repeated dosing every 1.5 hours, 10.5 hour sampling period", "value": "continuous increases"},
      {"measurement": "plasma levels of nicotine versus marketed nicotine replacement products", "setting": "[3]; single dose 4 mg, 8 mg or 12 mg, straw-like device, FIG. 3", "value": "comparable to or greater than"},
      {"measurement": "kinetics compared with nicotine gum", "setting": "[3]; straw-like device, FIG. 4", "value": "very similar"},
      {"measurement": "tolerability", "setting": "[4]; 4 mg and 8 mg doses in straw-like delivery device", "value": "well tolerated"},
      {"measurement": "nausea and vomiting", "setting": "[4]; 12 mg dose versus 4 mg and 8 mg", "value": "seen only with the 12 mg dose"},
      {"measurement": "adverse events observed", "setting": "[4]; all nicotine doses", "value": "lightheadedness, nausea, and vomiting"},
      {"measurement": "clinical chemistry, hematology, urinalysis or ECG values", "setting": "[4]; human, in vivo", "value": "no clinically significant changes"},
      {"measurement": "vital sign measurements", "setting": "[4]; human, in vivo", "value": "Occasional increases"},
      {"measurement": "craving for cigarettes", "setting": "[4]; over the repeat dosing session, all subjects receiving nicotine", "value": "decreased"}
    ]}
  ]
}
